Measured values taken from US20120029040A1, “ANIMAL ECTOPARASITE-CONTROLLING AGENT” (priority 2010, published 2012).

Columns and labels:
[1] = tested on: ticks (Haemaphysalis longicornis); assay: Dropping application against dog-infested ticks; assay type: in vivo
Procedure: Dropping Application Against Dog-Infested Ticks (Haemaphysalis longicornis)
Each (0.375 or 1.5 g) of the present hydrazide compound (1) and Comparative compound (52) was dissolved in diethylene glycol monoethyl ether (6.0 g) to prepare a test solution. Said test solution was directly dropped on the skin of the neck and back of the dog while pushing aside fur thereon at a rate of 0.1 ml per 1 kg of the dog's body weight (dose amount: 5 or 20 mg/kg). This is referred to as a test group. On the other hand, diethylene glycol monoethyl ether alone was applied dropwise to a placebo group.
Twenty eight (28) days later, 100 test ticks were deposited on each dog. Two (2) days after the deposit, the number of living ticks, which were infesting the dogs, was examined. When the examination was completed, all infested ticks were removed from the dogs. The infestation rate and control rate were calculated by the following formulae: […]
Method of calculating infestation rate and control rate at 30 days after the application:
Infestation rate (%) at X days after application=(number of living ticks at X days/number of ticks deposited)×100
(§1) Control rate (%) at X days after application=(infestation rate of placebo group at X days−infestation rate of test group at X days)/infestation rate of placebo group at X days×100
(§2) In addition, if an infestation rate of a test group is higher than a placebo group, then the control rate is deemed to be 0%.

[2] = tested on: ticks (Haemaphysalis longicornis); assay: Oral administration against dog-infested ticks; assay type: in vivo; details: dog (beagle), oral gelatin capsules
Procedure: Oral Administration Against Dog-Infested Ticks (Haemaphysalis longicornis)
The previous day before oral administration, 100 test ticks (Haemaphysalis longicornis, young ticks) were deposited on a dog (beagle). Before the oral administration, infested ticks were counted.
Each of the present hydrazide compound (1) and Comparative compound (52) was filled into gelatin capsules, and forcibly and orally administered to a dog in a dose amount of 5 mg or 20 mg per 1 kg of the dog's body weight. This is referred to as a test group. On the other hand, gelatin capsules alone was orally administered to a placebo group.
Two (2) days after the administration, the number of living ticks, which were infesting the dogs, was examined.
When the examination was completed, all infested ticks were removed from the dogs. The infestation rate and control rate were calculated by the following formulae: […]
Method of calculating infestation rate and control rate at the initial stage (2 days) after the administration:
Infestation rate (%) at X days after administration=(number of living ticks at X days/number of living ticks before administration)×100
Control rate (%) at X days after administration (infestation rate of test group before administration−infestation rate of test group at X days)/infestation rate of test group before administration×100
as §2

[3] = tested on: cat fleas (Ctenocephalides felis); assay: Dropping application against cat-infested cat fleas; assay type: in vivo
Procedure: Dropping Application Against Cat-Infested Cat Fleas (Ctenocephalides felis)
The previous day before dropping application, 50 test fleas (cat flea adults) were deposited on a cat. Before the dropping application, infested fleas were counted.
Each (0.75 or 1.5 g) of the present hydrazide compound (1) and Comparative compound (52) was dissolved in diethylene glycol monoethyl ether (6.0 g) to prepare a test solution. Said test solution was directly dropped on the skin of the neck and back of the cat while pushing aside fur thereon on at a rate of 0.1 ml per 1 kg of the cat's body weight (dose amount: 10 or 20 mg/kg). This is referred to as a test group. On the other hand, diethylene glycol monoethyl ether alone was applied dropwise to a placebo group.
Two (2) days after the application, the number of living fleas, which were infesting the cats, was examined. When the examination was completed, all infested fleas were removed from the cats.
Twenty eight (28) days later, 50 test fleas were re-deposited on each cat. Two (2) days after the re-deposit, the number of living fleas, which were infesting the cats, was examined. When the examination was completed, all infested fleas were removed from the cats. The infestation rate and control rate were calculated by the following formulae: […]
(i) Method of calculating infestation rate and control rate at the initial stage (2 days) after the application:
Infestation rate (%) at X days after application=(number of living fleas at X days/number of living fleas before application)×100
Control rate (%) at X days after application=(infestation rate of test group before application−infestation rate of test group at X days)/infestation rate of test group before application×100
(ii) Method of calculating infestation rate and control rate at 30 days after the application:
Infestation rate (%) at X days after application=(number of living fleas at X days/number of fleas deposited)×100
as §1, §2

[4] = tested on: cat fleas (Ctenocephalides felis); assay: Oral administration against cat-infested cat fleas; assay type: in vivo; details: oral with cat food, dose 20 mg/kg
Procedure: Oral Administration Against Cat-Infested Cat Fleas (Ctenocephalides felis)
Each of the present hydrazide compound (1) and Comparative compound (52) was mixed with a cat food, and orally administered to a cat in a dose amount of 20 mg per 1 kg of the cat's body weight. This is referred to as a test group. On the other hand, the cat food alone was fed to a placebo group.
Forty two (42) days later, 50 test fleas were deposited on each cat. Two (2) days after the deposit, the number of living fleas, which were infesting the cats, was examined. When the examination was completed, all infested fleas were removed from the cats. The infestation rate and control rate were calculated by the following formulae: […]
Method of calculating infestation rate and control rate at 44 days after the administration:
Infestation rate (%) at X days after administration=(number of living fleas at X days/number of fleas deposited)×100
Control rate (%) at X days after administration=(infestation rate of placebo group at X days−infestation rate of test group at X days)/infestation rate of placebo group at X days×100
as §2

[5] = tested on: ticks (Haemaphysalis longicornis); assay: Dropping application against mouse-infested ticks; assay type: in vivo; details: 0.1% w/v solution 200 μL dropwise to whole body surface, 2 days after application
Procedure: Dropping Application Against Mouse-Infested Ticks (Haemaphysalis longicornis)
The previous day before dropping application, 30 test ticks (Haemaphysalis longicornis, young ticks) were deposited on a mouse. Before the dropping application, uninfested ticks were removed.
The present hydrazide compound (1) (5 mg) was dissolved in a mixture (5 mL) of propylene carbonate and diethylene glycol monoethyl ether in equal amounts to prepare a 0.1% w/v solution. Said solution (200 μL) was applied dropwise to the whole body surface of a mouse with a pipette. To a control group, the mixture (200 μL) alone was applied. Each application was repeated 3 times per group.
Two (2) days after the application, the number of dead ticks was examined and the mortality was calculated by the following formula:
Mortality (%)=100×(number of dead ticks/infested ticks before dropping application)

[6] = tested on: ticks (Haemaphysalis longicornis); assay: Oral administration against mouse-infested ticks; assay type: in vivo; details: 20 mg in 10 mL test solution at 10 mL per 1 kg body weight, 2 days after administration
Procedure: Oral Administration Against Mouse-Infested Ticks (Haemaphysalis longicornis)
The previous day before oral administration, 30 test ticks (Haemaphysalis longicornis, young ticks) were deposited on a mouse. Before the oral administration, uninfested ticks were removed.
The present hydrazide compound (1) (20 mg) was dissolved in dimethylformamide (680 mg), and thereto a corn oil was added to prepare a test solution (10 mL). Said test solution was orally administered to the mouse at the rate of 10 mL per 1 kg of the body weight of the mouse with a gastric sonde. To a control group, a 7% dimethylformamide/corn oil solution alone was orally administered. Each administration was repeated 3 times per group.
Two (2) days after the administration, the number of dead ticks was examined and the mortality was calculated by the following formula:
Mortality (%)=100×(number of dead ticks/infested ticks before oral administration)

[7] = tested on: cat fleas (Ctenocephalides felis); assay: Oral administration against mouse-infested cat fleas; assay type: in vivo; details: 20 mg in 10 mL test solution at 10 mL per 1 kg body weight, fleas deposited after administration, 2 days later
Procedure: Oral Administration Against Mouse-Infested Cat Fleas (Ctenocephalides Felis)
The present hydrazide compound (1) (20 mg) was dissolved in dimethylformamide (680 mg), and thereto a corn oil was added to prepare a test solution (10 mL). Said test solution was orally administered to the mouse at a rate of 10 mL per 1 kg of the body weight of the mouse with a gastric sonde. To a control group, a 7% dimethylformamide/corn oil solution alone was orally administered. Each administration was repeated 3 times per group.
After the oral administration, 20 cat fleas were deposited on each mouse. Two (2) days later, the number of cat fleas was examined and the mortality was calculated by the following formula:
Mortality (%)=100×(number of dead cat fleas/number of cat fleas tested)

[8] = tested on: ticks (Haemaphysalis longicornis); assay: Pesticidal activity on ticks in filter paper test; details: 48 h, 100 mg/m^2, non-blood-fed young ticks, 2 days
Procedure: Pesticidal Activity on Ticks (Haemaphysalis longicornis) in Filter Paper Test
Each (5 mg) of the present hydrazide compounds (1) and (2) was dissolved in acetone (10 mL), and this acetone solution (1 mL) was uniformly applied onto one side of a filter paper (TOYO No. 2; 5×10 cm; the surface area of the filter paper was 50 cm^2, and thus the amount of the present hydrazide compound applied was 100 mg/m^2). After drying, said filter paper was folded, and the both sides of the paper were clipped to form a bag. Into this bag, test ticks (Haemaphysalis longicornis, non-blood-fed young ticks, 10 ticks/group) were added, and the opening was clipped to seal the bag. Two (2) days later, the number of dead ticks was examined and the mortality was calculated by the following formula:
Mortality (%)=100×(number of dead ticks/number of ticks tested)

| Structure (SMILES) | Tick control rates (%) at 30 days after the application ([1]; dose 5 mg/kg) [%] | Tick control rates (%) at 2 days after the application ([2]; dose 5 mg/kg) [%] | Flea control rates (%) at 2 days after the application ([3]; dose 10 mg/kg) [%] | Flea control rates (%) at 30 days after the application ([3]; dose 10 mg/kg) [%] | Flea control rates (%) at 44 days after the administration [4] [%] | Mortality [5] [%] | Mortality [6] [%] | Mortality [7] [%] | Tick control rates (%) at 30 days after the application ([1]; dose 20 mg/kg) [%] | Tick control rates (%) at 2 days after the application ([2]; dose 20 mg/kg) [%] | Flea control rates (%) at 2 days after the application ([3]; dose 20 mg/kg) [%] | Flea control rates (%) at 30 days after the application ([3]; dose 20 mg/kg) [%] | mortality at 100 mg/m2 [8] [%] |
| --- | --- | --- | --- | --- | --- | --- | --- | --- | --- | --- | --- | --- | --- |
| CC(=O)NNc1cc(C2=NOC(c3cc(Cl)cc(Cl)c3)(C(F)(F)F)C2)ccc1Cl (stereo not drawn) [Comparative compound (52), N′-{5-[5-(3,5-dichlorophenyl)-5-trifluoromethyl-4,5-dihydroisoxazol-3-yl]-2-chlorophenyl}acetohydrazide, reference compound] | 29 | 26 | 58 | 74 | 68 | – | – | – | – | – | – | – | – |
| O=C(NNc1cc(C2=NOC(c3cc(Cl)cc(Cl)c3)(C(F)(F)F)C2)ccc1Cl)C1CC1 (stereo not drawn) [Compound (1), N′-{2-chloro-5-[5-(3,5-dichlorophenyl)-5-trifluoromethyl-4,5-dihydroisoxazol-3-yl]phenyl}cyclopropanecarbohydrazide] | 100 | 100 | 92 | 84 | 94 | ≥ 70 | ≥ 90 | ≥ 90 | 100 | 100 | 96 | 94 | – |
| CN(NC(=O)C1CC1)c1cc(C2=NOC(c3cc(Cl)cc(Cl)c3)(C(F)(F)F)C2)ccc1Cl (stereo not drawn) [(2), N′-methyl-N′-{2-chloro-5-[5-(3,5-dichlorophenyl)-5-trifluoromethyl-4,5-dihydroisoxazol-3-yl]phenyl}cyclopropanecarbohydrazide] | – | – | – | – | – | – | – | – | – | – | – | – | ≥ 90 |
